Assay results published in BindingDB's records for doi:10.7270/Q2BV7F1T (Pcmd, 2008).

Target: T1, DNA repair protein RAD51 homolog 1 (Homo sapiens, UniProt Q06609)
T1 sequence (Q06609 whole entry): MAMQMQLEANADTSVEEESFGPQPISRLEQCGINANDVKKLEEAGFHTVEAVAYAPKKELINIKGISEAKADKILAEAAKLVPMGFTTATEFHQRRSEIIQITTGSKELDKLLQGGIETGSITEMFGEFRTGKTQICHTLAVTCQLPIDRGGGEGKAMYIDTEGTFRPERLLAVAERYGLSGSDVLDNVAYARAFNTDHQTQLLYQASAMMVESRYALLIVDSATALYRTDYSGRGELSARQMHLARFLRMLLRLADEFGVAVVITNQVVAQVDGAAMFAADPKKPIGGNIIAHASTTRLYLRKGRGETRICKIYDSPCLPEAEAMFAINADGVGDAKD
Assay: concentration-dependent blocking of RAD51 activity – biochemical, homologous recombination, fluorescence, dose response (AID 1435)

Row | IC50 | IC50 (inactive by the depositor's call) | Compound
1 | > 85 µM | – | CCOC(=O)c1c(NS(C)(=O)=O)sc2c1CCC(C)C2 (configuration not stated) [ethyl 2-(methanesulfonamido)-6-methyl-4,5,6,7-tetrahydro-1-benzothiophene-3-carboxylate]
2 | – | 42.5 µM | O=C(NC1CCCCC1)c1cc([N+](=O)[O-])ccc1N1CCCCC1 [Glucosamine derivative, 8]
